The values below come from patent US9725445B2, “Cycloalkyl nitrile pyrazolo pyridones as Janus kinase inhibitors” (Merck Sharp & Dohme Corp., priority 2013, dated 2017).

Assay [1] concerns the target JAK2 (Homo sapiens (Human), UniProt O60674). Put plainly: Jak biochemical HTRF assay, JAK2. The note with it: recombinant GST-tagged catalytic domain. (In TR-FRET formats the signal depends on donor and acceptor labels being close together.)
For assay [2], the target named is JAK1 (Homo sapiens (Human), UniProt P23458). In words: Jak biochemical HTRF assay, JAK1. To be noted: recombinant GST-tagged catalytic domain.
Where [3] appears, read: JAK2 IC50, HTRF biochemical assay.
Where [4] appears, read: JAK1 IC50, HTRF biochemical assay.
Where [5] appears, read: HTRF biochemical assay, read-out: JAK2 IC50.
[6] abbreviates: HTRF biochemical assay, read-out: JAK1 IC50.

Where a name gives a salt, the structure may show the parent alone. Read-outs that look alike come from different tables or passages of the source.

JAK1, sequence (P23458 875-1153): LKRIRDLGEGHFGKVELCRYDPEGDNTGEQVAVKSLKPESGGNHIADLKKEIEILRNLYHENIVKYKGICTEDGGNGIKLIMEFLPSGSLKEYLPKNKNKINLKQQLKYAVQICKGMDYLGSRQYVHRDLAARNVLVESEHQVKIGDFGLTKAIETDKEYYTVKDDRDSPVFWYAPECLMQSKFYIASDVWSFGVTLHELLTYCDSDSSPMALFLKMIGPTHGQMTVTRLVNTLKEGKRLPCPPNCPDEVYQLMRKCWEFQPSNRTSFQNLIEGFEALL
JAK2, sequence (O60674 849-1124): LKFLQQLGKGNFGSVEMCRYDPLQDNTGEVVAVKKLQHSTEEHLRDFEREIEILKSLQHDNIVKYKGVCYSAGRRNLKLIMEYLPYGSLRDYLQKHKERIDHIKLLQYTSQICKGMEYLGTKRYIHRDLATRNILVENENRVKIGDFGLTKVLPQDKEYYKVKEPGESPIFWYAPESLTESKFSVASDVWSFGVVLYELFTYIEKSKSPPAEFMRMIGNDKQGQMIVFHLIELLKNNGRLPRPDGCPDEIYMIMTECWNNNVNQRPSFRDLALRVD

In the case of `CC(C)(C)OC(=O)N1[C@@H]2CC[C@H]1C[C@@H](c1ccc(Nc3nn([C@H]4CCCC[C@@H]4C#N)c4cc[nH]c(=O)c34)cc1)C2` (single isomer, unassigned) [Example 3-165], the IC50 (usually the concentration at which inhibition is half-maximal) in assay [1] (setting [3]) stood at 7.9 nM; in assay [2] (setting [4]), 2.6 nM.
For the compound `N#C[C@H]1CCCC[C@@H]1n1nc(Nc2ccc(S(N)(=O)=O)cc2)c2c(=O)[nH]ccc21` [Example 3-7, 4-({1-[(1S,2S)-2-cyanocyclohexyl]-4-oxo-4,5-dihydro-1H-pyrazolo[4,3-c]pyridin-3-yl}amino)benzenesulfonamide], the IC50 in assay [1] (setting [5]) was determined as 0.85 nM; in assay [2] (setting [6]), 0.11 nM.
In the same order, the values of `CC(C)[C@H](C)N1Cc2ccc(Nc3nn([C@H]4CCCC[C@@H]4C#N)c4cc[nH]c(=O)c34)cc2C1` [Example 3-148, (1S,2S)-2-[3-({2-[(1S)-1,2-dimethylpropyl]-2,3-dihydro-1H-isoindol-5-yl}amino)-4-oxo-4,5-dihydro-1H-pyrazolo[4,3-c]pyridin-1-yl]cyclohexanecarbonitrile] are 0.43 nM and 0.31 nM.
Take `N#C[C@H]1CCCC[C@@H]1n1nc(Nc2ccc(CN)cc2)c2c(=O)[nH]ccc21` [Example 6-5, (1S,2S)-2-(3-((4-(aminomethyl)phenyl)amino)-4-oxo-4,5-dihydro-1H-pyrazolo[4,3-c]pyridin-1-yl)cyclohexanecarbonitrile]: the 50% inhibitory concentration (IC50) in assay [1] (setting [5]) stood at 0.82 nM; in assay [2] (setting [6]), 0.46 nM.
In the same order, the values of `N#C[C@H]1CCC[C@@H]1n1nc(Nc2ccc(C(N)C(F)(F)F)cc2)c2c(=O)[nH]ccc21` (single isomer, unassigned) [Example 3-104, (1S,2S)-2-[3-({4-[(1S or 1R)-1-amino-2,2,2-trifluoroethyl]phenyl}amino)-4-oxo-4,5-dihydro-1H-pyrazolo[4,3-c]pyridin-1-yl]cyclopentanecarbonitrile] are 0.59 nM and 0.22 nM.
In the same order, the values of `N#C[C@H]1C[C@@H](N2CCC2)CC[C@@H]1n1nc(Nc2ccc(OC(F)(F)F)cc2)c2c(=O)[nH]ccc21` [Example 5-24, (1S,2S,5S)-5-(azetidin-1-yl)-2-(4-oxo-3-((4-(trifluoromethoxy)phenyl)amino)-4,5-dihydro-1H-pyrazolo[4,3-c]pyridin-1-yl)cyclohexanecarbonitrile] are 31 nM and 0.88 nM.
The matching figures for `COCCN1Cc2cc(Nc3nn([C@H]4CCCC[C@@H]4C#N)c4cc[nH]c(=O)c34)ccc2S1(=O)=O` [Example 3-83, (1S,2S)-2-(3-{[2-(2-methoxyethyl)-1,1-dioxido-2,3-dihydro-1,2-benzisothiazol-5-yl]amino}-4-oxo-4,5-dihydro-1H-pyrazolo[4,3-c]pyridin-1-yl)cyclohexanecarbonitrile]: 0.55 nM and 0.066 nM.
Turning to `N#C[C@H]1CCCC[C@@H]1n1nc(Nc2ccc([C@@H]3C[C@H]4CC[C@@H](C3)N4)cc2)c2c(=O)[nH]ccc21` [Example 20-1, (1S,2S)-2-(3-((4-((1R,3S,5S)-8-azabicyclo[3.2.1]octan-3-yl)phenyl)amino)-4-oxo-4,5-dihydro-1H-pyrazolo[4,3-c]pyridin-1-yl)cyclohexanecarbonitrile hydrochloride], the IC50 in assay [1] (setting [5]) amounted to 0.57 nM; in assay [2] (setting [6]), 0.38 nM.
For the compound `N#C[C@H]1CCCC[C@@H]1n1nc(Nc2ccc(CNC(=O)c3ncccn3)cc2)c2c(=O)[nH]ccc21` [Example 3-30, N-[4-({1-[(1S,2S)-2-cyanocyclohexyl]-4-oxo-4,5-dihydro-1H-pyrazolo[4,3-c]pyridin-3-yl}amino)benzyl]pyrimidine-2-carboxamide], the results for the IC50 in assay [1] (setting [5]) and in assay [2] (setting [6]) were 2 nM and 0.29 nM, respectively.
Consider `N#C[C@H]1CCC[C@@H]1n1nc(Nc2ccc3c(c2)CN(CC(F)(F)F)C3=O)c2c(=O)[nH]ccc21` [Example 3-97, (1S,2S)-2-(4-oxo-3-{[1-oxo-2-(2,2,2-trifluoroethyl)-2,3-dihydro-1H-isoindol-5-yl]amino}-4,5-dihydro-1H-pyrazolo[4,3-c]pyridin-1-yl)cyclopentanecarbonitrile], for which the IC50 is 0.44 nM in assay [1] (setting [5]) and 0.082 nM in assay [2] (setting [6]).
As for `CN(C)[C@@H]1CC[C@H](n2nc(Nc3ccc(OC(F)(F)F)cc3)c3c(=O)[nH]ccc32)[C@@H](C#N)C1` [Example 5-25, (1S,2S,5R)-5-(dimethylamino)-2-(4-oxo-3-((4-(trifluoromethoxy)phenyl)amino)-4,5-dihydro-1H-pyrazolo[4,3-c]pyridin-1-yl)cyclohexanecarbonitrile], the IC50 in assay [1] (setting [5]) worked out at 22 nM; in assay [2] (setting [6]), 0.96 nM.
The matching figures for `CC(O)c1cccc(Nc2nn([C@H]3CCCC[C@@H]3C#N)c3cc[nH]c(=O)c23)c1` (stereo partly drawn) [Example 3-31, (1S,2S)-2-(3-{[3-(1-hydroxyethyl)phenyl]amino}-4-oxo-4,5-dihydro-1H-pyrazolo[4,3-c]pyridin-1-yl)cyclohexanecarbonitrile]: 1.7 nM and 0.46 nM.
Consider `N#C[C@H]1CCCC[C@@H]1n1nc(Nc2ccc3c(c2)CN(CC2CC2)S3(=O)=O)c2c(=O)[nH]ccc21` [Example 3-63, (1S,2S)-2-(3-{[2-(cyclopropylmethyl)-1,1-dioxido-2,3-dihydro-1,2-benzisothiazol-5-yl]amino}-4-oxo-4,5-dihydro-1H-pyrazolo[4,3-c]pyridin-1-yl)cyclohexanecarbonitrile], for which the IC50 in assay [1] (setting [5]) turned out to be 0.54 nM; in assay [2] (setting [6]), 0.066 nM.
Consider `CS(=O)(=O)c1ccc(Nc2nn([C@H]3CCCC[C@@H]3C#N)c3cc[nH]c(=O)c23)cc1CN` [Example 6-4, (1S,2S)-2-(3-((3-(aminomethyl)-4-(methylsulfonyl)phenyl)amino)-4-oxo-4,5-dihydro-1H-pyrazolo[4,3-c]pyridin-1-yl)cyclohexanecarbonitrile], for which the IC50 in assay [1] (setting [5]) was 2.9 nM; in assay [2] (setting [6]), 1 nM.
The matching figures for `CC(C)(c1ccc(Nc2nn([C@H]3CCCC[C@@H]3C#N)c3cc[nH]c(=O)c23)cc1)n1nccn1` [Example 15-29, (1S,2S)-2-[3-({4-[1-methyl-1-(2H-1,2,3-triazol-2-yl)ethyl]phenyl}amino)-4-oxo-4,5-dihydro-1H-pyrazolo[4,3-c]pyridin-1-yl]cyclohexanecarbonitrile]: 0.24 nM and 0.14 nM.
Regarding `CC(C)CN1Cc2cc(Nc3nn([C@H]4CCCC[C@@H]4C#N)c4cc[nH]c(=O)c34)ccc2S1(=O)=O` [Example 3-62, (1S,2S)-2-(3-{[2-(2-methylpropyl)-1,1-dioxido-2,3-dihydro-1,2-benzisothiazol-5-yl]amino}-4-oxo-4,5-dihydro-1H-pyrazolo[4,3-c]pyridin-1-yl)cyclohexanecarbonitrile], the values for the IC50 in assay [1] (setting [5]) and in assay [2] (setting [6]) were 0.41 nM and 0.083 nM, respectively.
The matching figures for `N#C[C@H]1CCCC[C@@H]1n1nc(Nc2ccc(S(=O)(=O)N3CCCCC3)cc2)c2c(=O)[nH]ccc21` [Example 3-23, (1S,2S)-2-(4-oxo-3-{[4-(piperidin-1-ylsulfonyl)phenyl]amino}-4,5-dihydro-1H-pyrazolo[4,3-c]pyridin-1-yl)cyclohexanecarbonitrile]: 0.48 nM and 0.31 nM.
On to `CN(C)[C@H]1CC[C@H](n2nc(Nc3ccc(Cl)cc3)c3c(=O)[nH]ccc32)[C@@H](C#N)C1` [Example 5-16, (1S,2S,5S)-2-(3-((4-chlorophenyl)amino)-4-oxo-4,5-dihydro-1H-pyrazolo[4,3-c]pyridin-1-yl)-5-(dimethylamino)cyclohexanecarbonitrile], for which the values for the IC50 in assay [1] (setting [5]) and in assay [2] (setting [6]) were 11 nM and 0.34 nM, respectively.
In the case of `CC(C)(C)OC(=O)N1[C@@H]2CC[C@H]1C[C@H](c1ccc(Nc3nn([C@H]4CCCC[C@@H]4C#N)c4cc[nH]c(=O)c34)cc1)C2` (single isomer, unassigned) [Example 3-166], the values for the IC50 in assay [1] (setting [3]) and in assay [2] (setting [4]) were 6.5 nM and 0.96 nM, respectively.
As to `Cc1cn(Cc2cccc(Nc3nn([C@H]4CCCC[C@@H]4C#N)c4cc[nH]c(=O)c34)c2)nn1` [Example 3-37, (1S,2S)-2-[3-({3-[(4-methyl-1H-1,2,3-triazol-1-yl)methyl]phenyl}amino)-4-oxo-4,5-dihydro-1H-pyrazolo[4,3-c]pyridin-1-yl]cyclohexanecarbonitrile], the IC50 worked out at 2.1 nM in assay [1] (setting [5]) and 0.18 nM in assay [2] (setting [6]).
For the compound `CN(C(C)(C)C)S(=O)(=O)c1ccc(Nc2nn([C@@H]3CCCCC[C@H]3C#N)c3cc[nH]c(=O)c23)cc1` (single isomer, unassigned) [Example 15-51, N-tert-butyl-4-({1-[(1R,2R or 1S,2S)-2-cyanocycloheptyl]-4-oxo-4,5-dihydro-1H-pyrazolo[4,3-c]pyridin-3-yl}amino)-N-methylbenzenesulfonamide], the figures for the IC50 in assay [1] (setting [5]) and in assay [2] (setting [6]) were 0.37 nM and 0.23 nM, respectively.
Consider `Cn1cc(-c2ccc(Nc3nn([C@H]4CCCC[C@@H]4C#N)c4cc[nH]c(=O)c34)cc2Cl)cn1` [Example 3-146, (1S,2S)-2-(3-{[3-chloro-4-(1-methyl-1H-pyrazol-4-yl)phenyl]amino}-4-oxo-4,5-dihydro-1H-pyrazolo[4,3-c]pyridin-1-yl)cyclohexanecarbonitrile], for which the IC50 was 6.4 nM in assay [1] (setting [5]) and 0.29 nM in assay [2] (setting [6]).
`CCOC(=O)c1cnn(-c2ccc(Nc3nn([C@H]4CCCC[C@@H]4C#N)c4cc[nH]c(=O)c34)cc2C)c1` [Example 15-15, ethyl 1-[4-({1-[(1S,2S)-2-cyanocyclohexyl]-4-oxo-4,5-dihydro-1H-pyrazolo[4,3-c]pyridin-3-yl}amino)-2-methylphenyl]-1H-pyrazole-4-carboxylate]: the IC50 turned out to be 5.9 nM in assay [1] (setting [5]) and 1.7 nM in assay [2] (setting [6]).
`C[C@H](N[C@@H]1CC[C@H](n2nc(Nc3ccc(OC(F)(F)F)cc3)c3c(=O)[nH]ccc32)[C@@H](C#N)C1)C1CC1` [Example 5-27, (1S,2S,5R)-5-(((S)-1-cyclopropylethyl)amino)-2-(4-oxo-3-((4-(trifluoromethoxy)phenyl)amino)-4,5-dihydro-1H-pyrazolo[4,3-c]pyridin-1-yl)cyclohexanecarbonitrile]: the IC50 turned out to be 233 nM in assay [1] (setting [5]) and 3.7 nM in assay [2] (setting [6]).
